Source: PubChem BioAssay (NCI)
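Following 48 hours of exposure in 96-well plates, responses at five concentrations were used to interpolate endpoints linearly. At the TGI there is no net growth.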

Assays:
Test in all cases: DTP human tumour cell line panel, 48 h
SN12C renal = test system: SN12C renal
SW-620 colon = test system: SW-620 colon
HCT-116 colon = test system: HCT-116 colon
786-0 renal = test system: 786-0 renal
SNB-19 CNS = test system: SNB-19 CNS
HCT-15 colon = test system: HCT-15 colon
OVCAR-3 ovarian = test system: OVCAR-3 ovarian
KM12 colon = test system: KM12 colon
NCI-H460 lung = test system: NCI-H460 lung
IGROV1 ovarian = test system: IGROV1 ovarian
A549 NSCLC = test system: A549 NSCLC
UO-31 renal = test system: UO-31 renal
SK-OV-3 ovarian = test system: SK-OV-3 ovarian
ACHN renal = test system: ACHN renal
HCC-2998 colon = test system: HCC-2998 colon
MCF7 breast = test system: MCF7 breast
NCI/ADR-RES ovarian = test system: NCI/ADR-RES ovarian
T-47D breast = test system: T-47D breast
MDA-N = test system: MDA-N

Compound	TGI (SN12C renal) [µM]	TGI (SW-620 colon) [µM]	TGI (HCT-116 colon) [µM]	TGI (786-0 renal) [µM]	TGI (SNB-19 CNS) [µM]	TGI (HCT-15 colon) [µM]	TGI (OVCAR-3 ovarian) [µM]	TGI (KM12 colon) [µM]	TGI (NCI-H460 lung) [µM]	TGI (IGROV1 ovarian) [µM]	TGI (A549 NSCLC) [µM]	TGI (UO-31 renal) [µM]	TGI (SK-OV-3 ovarian) [µM]	TGI (ACHN renal) [µM]	TGI (HCC-2998 colon) [µM]	TGI (MCF7 breast) [µM]	TGI (NCI/ADR-RES ovarian) [µM]	TGI (T-47D breast) [µM]	TGI (MDA-N) [µM]
CCCN1CN(C(C(=O)N[C@@H]2C(=O)N3C2SC(C)(C)C3C(=O)O)c2ccccc2)CSC1=S (stereo partly specified)	> 100	31.7	> 100	> 100	> 100	> 100	> 100	> 100	> 100	> 100	> 100	> 100	> 100	> 100	–	–	–	–	–
O=C(Cn1cc(-c2ccccc2)nn1)NC1CCCC1	> 100	> 100	> 100	> 100	> 100	> 100	–	> 100	> 100	> 100	> 100	–	–	> 100	> 100	> 100	> 100	–	–
Cc1ccc2c(=O)cc(-c3cccc4ccccc34)[nH]c2n1	> 100	> 100	> 34.8	> 79.2	> 100	1.73	–	1.98	> 100	> 100	> 48.1	> 55.4	2.64	> 100	0.177	> 43.1	> 100	> 100	–
O=C(NC1CCC(=O)N1C(=O)OCc1ccccc1)OCc1ccccc1 (stereo unspecified)	> 100	> 100	–	> 100	> 100	> 100	> 100	> 100	> 100	> 100	> 100	> 100	> 100	> 100	> 100	> 100	> 100	–	> 100
C=C(C)CC1=C(OCC)C(OC)(OCC)C1=O (stereo unspecified)	> 100	> 100	> 100	> 100	> 100	> 100	> 100	> 100	> 100	> 100	> 100	> 100	> 100	> 100	–	> 100	> 100	> 100	> 100
C=CC1ON(C)CCc2cc(OC)c(OC)cc21 (stereo unspecified)	> 100	> 100	> 100	> 100	> 100	> 100	> 100	> 100	> 100	> 100	> 100	> 100	–	> 100	> 100	> 100	> 100	> 100	> 100
COc1ccccc1C(C1=C(O)COC1=O)c1cc2c(cc1OC(C)=O)OCO2 (stereo unspecified)	> 100	> 100	> 100	> 100	> 100	> 100	> 100	> 100	> 100	> 100	> 100	> 100	> 100	> 100	> 100	> 100	> 100	–	> 100
